The source of these data is US20250228983A1, “PROBES FOR CELLULAR SENESCENCE” (UNIVERSITY OF FLORIDA RESEARCH FOUNDATION, INCORPORATED, priority 2022, published 2025).

Assay [1] deals with bovine serum albumin (BSA) (Bos taurus, UniProt P02769). In words: In gel fluorescence nonspecific labeling of BSA. The following applies: 10 μM probe, 50 μg BSA, 50 μL PBS, 37° C., 2 h; compared with NIR-BG2. Type of assay: biochemical. As for the experimental part: (§1) FIG. 4. Compare labeling efficiency using in gel fluorescence. 10 μM of NIR-BG2, NIR-BG3 or NIR-BG4 is incubated with 10 units of β-gal and/or 50 μg of BSA in total volume of 50 μL PBS solution were incubated at 37° C. for 2 h. Each lane was loaded with 10 μL of the reaction solution.
bovine serum albumin (BSA), sequence (P02769 25-607): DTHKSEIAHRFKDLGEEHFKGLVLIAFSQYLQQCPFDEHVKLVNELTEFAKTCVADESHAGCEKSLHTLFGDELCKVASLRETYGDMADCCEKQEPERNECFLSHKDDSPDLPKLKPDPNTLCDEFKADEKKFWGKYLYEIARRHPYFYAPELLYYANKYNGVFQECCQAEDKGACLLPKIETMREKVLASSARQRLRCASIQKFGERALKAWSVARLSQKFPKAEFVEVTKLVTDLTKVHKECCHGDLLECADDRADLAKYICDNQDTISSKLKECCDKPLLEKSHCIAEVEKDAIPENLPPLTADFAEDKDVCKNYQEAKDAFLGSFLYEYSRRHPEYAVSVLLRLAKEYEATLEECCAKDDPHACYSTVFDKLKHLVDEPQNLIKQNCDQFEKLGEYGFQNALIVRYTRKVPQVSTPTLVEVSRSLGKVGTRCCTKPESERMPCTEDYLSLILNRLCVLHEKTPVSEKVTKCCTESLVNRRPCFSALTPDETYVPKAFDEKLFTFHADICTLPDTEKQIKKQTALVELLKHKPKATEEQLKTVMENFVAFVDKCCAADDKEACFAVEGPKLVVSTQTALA
(§2) In certain examples, two carbamate analogues were synthesized: NIR-BG3 carrying ethyl carbamate and NIR-BG4 carrying an endocyclic carbamate. To compare these two analogues with NIR-BG2, the three probes were incubated with recombinant β-galactosidase (p-gal) and bovine serum albumin (BSA) and the labeling efficiency of these probes on P-gal and BSA was compared using gel electrophoresis.

Assay [2] deals with CT26.WT and CT26.CL25 cells (stably transfected with LacZ). In words: Fluorescent cell imaging and flow cytometry of CT26.WT and CT26.CL25 cells. The settings on record: 10 μM probe. In kind it is cell-based. The method, then:
FIG. 5. FIG. 5A: Fluorescent cell imaging of CT26. WT and CT26.CL25 cells after incubating with 10 μM of NIR-BG2 or NIR-BG3 in serum free medium for 2 hours at 37° C. Cells were fixed, permeabilized with 0.5% Triton X-100 and stained with DAPI. Scale bar: […]. FIG. 5B: Flow cytometry and FIG. 5C quantification of fluorescence in CT26.WT and CT26.CL25 cells after incubating with 10 μM of NIR-BG2 or NIR-BG3.
NIR-BG2 and NIR-BG3 were also compared in CT26.WT and CT26.CL25 that are stably transfected with LacZ.

The target in assay [3] is recombinant β-galactosidase (β-gal) (Escherichia coli, UniProt P00722). As to the kind of experiment: In gel fluorescence labeling efficiency on recombinant β-galactosidase. In kind it is biochemical. The settings on record: 10 μM probe, 10 units β-gal and/or 50 μg BSA, 50 μL PBS, 37° C., 2 h; compared with NIR-BG2. As for the experimental part:
as §1, §2

recombinant β-galactosidase (β-gal), sequence (P00722 2-1024): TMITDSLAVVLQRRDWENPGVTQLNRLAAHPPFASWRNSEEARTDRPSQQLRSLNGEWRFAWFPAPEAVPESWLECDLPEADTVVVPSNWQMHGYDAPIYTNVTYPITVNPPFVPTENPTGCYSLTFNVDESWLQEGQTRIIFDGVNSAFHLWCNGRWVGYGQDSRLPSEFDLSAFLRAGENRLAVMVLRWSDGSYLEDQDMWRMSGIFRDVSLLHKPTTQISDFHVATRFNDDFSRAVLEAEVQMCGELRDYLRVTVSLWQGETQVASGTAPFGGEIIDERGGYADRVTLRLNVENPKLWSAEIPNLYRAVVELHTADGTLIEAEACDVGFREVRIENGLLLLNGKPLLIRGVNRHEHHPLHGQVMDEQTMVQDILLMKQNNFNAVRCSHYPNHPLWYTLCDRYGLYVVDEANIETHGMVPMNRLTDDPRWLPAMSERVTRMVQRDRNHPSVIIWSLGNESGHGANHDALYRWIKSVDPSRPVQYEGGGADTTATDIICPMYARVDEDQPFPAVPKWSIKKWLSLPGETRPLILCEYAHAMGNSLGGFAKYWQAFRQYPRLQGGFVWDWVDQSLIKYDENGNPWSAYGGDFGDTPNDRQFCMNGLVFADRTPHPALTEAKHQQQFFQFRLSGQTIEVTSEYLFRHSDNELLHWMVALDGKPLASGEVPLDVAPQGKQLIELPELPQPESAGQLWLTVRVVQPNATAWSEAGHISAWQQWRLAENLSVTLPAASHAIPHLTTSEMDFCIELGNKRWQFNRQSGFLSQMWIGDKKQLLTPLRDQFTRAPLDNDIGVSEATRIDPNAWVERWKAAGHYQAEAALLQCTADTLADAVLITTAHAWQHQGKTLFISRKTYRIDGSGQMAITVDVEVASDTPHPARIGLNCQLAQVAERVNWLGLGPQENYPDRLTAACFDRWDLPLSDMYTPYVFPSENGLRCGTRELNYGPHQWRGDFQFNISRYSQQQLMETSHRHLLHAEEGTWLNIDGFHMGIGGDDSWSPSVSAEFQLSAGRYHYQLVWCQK

For the compound `CCC[N+]1=C(/C=C/C2=C3Oc4cc(OCc5ccc(O[C@@H]6OC(CO)[C@H](O)[C@H](O)C6O)cc5)c(COC(=O)NCC)cc4C=C3CCC2)C(C)(C)c2ccccc21` (stereo partly drawn) [NIR-BG3], the “nonspecific labeling of BSA” value in assay [1] was “slightly higher nonspecific labeling of BSA”. The “contrast for CT26.CL25 cells over CT26.WT” value in assay [2] (serum free medium, 2 hours, 37° C.) is recorded as “strong contrast”. For the same compound, the “mean intensity compared to NIR-BG2” value in assay [2] (FIG. 5) is “about 2 fold”. In addition, in assay [2] (compared with NIR-BG2), the “background by flow cytometry” value was “higher background”; the “fluorescence by flow cytometry” value was “overall higher fluorescence”; the “fluorescent intensity (FIG. 5A and FIG. 5C)” value is “much higher than NIR-BG2”. The “labeling efficiency (in gel fluorescence)” value in assay [3] is recorded as “significantly higher labeling efficiency”.
Take `CCC[N+]1=C(/C=C/C2=C3Oc4cc(OCc5ccc(O[C@@H]6OC(CO)[C@H](O)[C@H](O)C6O)cc5)c(COC(=O)N5CCCCC5)cc4C=C3CCC2)C(C)(C)c2ccccc21` (stereo partly drawn) [NIR-BG4]: in assay [1], the “nonspecific labeling of BSA” value is recorded as “slightly higher nonspecific labeling of BSA”. Also, in assay [3], the “labeling efficiency (in gel fluorescence)” value is “significantly higher labeling efficiency”.
